According to US11358985B2, “Tripeptide compound, preparation method therefor, and application thereof” (NORTHWEST UNIVERSITY, priority 2014, dated 2022):

Columns and labels:
[1] = target: angiotensin-converting enzyme (ACE) (UniProt P12822); assay type: biochemical; settings: substrate HHL, 37° C., pH 8.3, hippuric acid at 228 nm
mouse ACE = assay: In vivo ACE activity test: ACE content in kidney tissue by double antibody sandwich ELISA; set-up: species or system Kunming mice; settings: for ACE content: male Kunming mice, kidney homogenate, intragastric 0.05 mmol/kg once a day for 7 days, 2 h after final dose
[2] = system: spontaneously hypertensive rats (SHR); assay: Blood pressure in SHR rats after multiple administrations; assay type: in vivo, rat
Protocol: (§1) SPF grade male spontaneously hypertensive model rats (SHR) (male, 12 weeks old, body weight 200 g±20 g) were divided into three groups: blank group, control group and sample group, with 6 rats each group. Animals were housed in the Shaanxi Provincial Biomedical Animal Laboratory at the School of Life Sciences of Northwest University at a temperature of 22° C. and a humidity of 50%, with 12 hours light/dark cycle and free to eat and drink water. The SHR rats were trained to adapt to blood pressure measurements after 5 days of adaptation to the environment. Prior to administration, the basal blood pressure of the rats in each group was measured and the systolic blood pressure was between 190±5 mmHg.
The particular measurement steps: the conscious rats were placed in the fixed box of the blood pressure meter. […] After the signal was stabilized, the blood pressure was measured and the 5 readings with a change in blood pressure less than 10 mmHg were recorded, with an interval of 10 seconds. […]
According to the above method and dose, rats were administered intragastrically continuously for 7 days, once a day. Blood pressure was measured 2 hours after administration. After the end of the administration, blood pressure was measured continuously for 7 days, once a day, and the change in blood pressure was recorded.

[3] = system: spontaneously hypertensive rats (SHR); assay: Blood pressure in SHR rats after one administration (tail pulse indirect pressure measurement); assay type: in vivo, rat
Protocol: as §1
The systolic blood pressure of the experimental rats was measured by tail pulse indirect pressure measurement. […]
The particular measurement steps: the conscious rats were placed in the fixed box of the blood pressure meter. A heating plate at 30° C. was provided in the bottom of the fixed box, which was preheated for 10 min to expand the local blood vessels. […] After the signal was stabilized, the blood pressure was measured and the 5 readings with a change in blood pressure less than 10 mmHg were recorded, with an interval of 10 seconds. […]

angiotensin-converting enzyme (ACE), sequence (P12822 whole entry): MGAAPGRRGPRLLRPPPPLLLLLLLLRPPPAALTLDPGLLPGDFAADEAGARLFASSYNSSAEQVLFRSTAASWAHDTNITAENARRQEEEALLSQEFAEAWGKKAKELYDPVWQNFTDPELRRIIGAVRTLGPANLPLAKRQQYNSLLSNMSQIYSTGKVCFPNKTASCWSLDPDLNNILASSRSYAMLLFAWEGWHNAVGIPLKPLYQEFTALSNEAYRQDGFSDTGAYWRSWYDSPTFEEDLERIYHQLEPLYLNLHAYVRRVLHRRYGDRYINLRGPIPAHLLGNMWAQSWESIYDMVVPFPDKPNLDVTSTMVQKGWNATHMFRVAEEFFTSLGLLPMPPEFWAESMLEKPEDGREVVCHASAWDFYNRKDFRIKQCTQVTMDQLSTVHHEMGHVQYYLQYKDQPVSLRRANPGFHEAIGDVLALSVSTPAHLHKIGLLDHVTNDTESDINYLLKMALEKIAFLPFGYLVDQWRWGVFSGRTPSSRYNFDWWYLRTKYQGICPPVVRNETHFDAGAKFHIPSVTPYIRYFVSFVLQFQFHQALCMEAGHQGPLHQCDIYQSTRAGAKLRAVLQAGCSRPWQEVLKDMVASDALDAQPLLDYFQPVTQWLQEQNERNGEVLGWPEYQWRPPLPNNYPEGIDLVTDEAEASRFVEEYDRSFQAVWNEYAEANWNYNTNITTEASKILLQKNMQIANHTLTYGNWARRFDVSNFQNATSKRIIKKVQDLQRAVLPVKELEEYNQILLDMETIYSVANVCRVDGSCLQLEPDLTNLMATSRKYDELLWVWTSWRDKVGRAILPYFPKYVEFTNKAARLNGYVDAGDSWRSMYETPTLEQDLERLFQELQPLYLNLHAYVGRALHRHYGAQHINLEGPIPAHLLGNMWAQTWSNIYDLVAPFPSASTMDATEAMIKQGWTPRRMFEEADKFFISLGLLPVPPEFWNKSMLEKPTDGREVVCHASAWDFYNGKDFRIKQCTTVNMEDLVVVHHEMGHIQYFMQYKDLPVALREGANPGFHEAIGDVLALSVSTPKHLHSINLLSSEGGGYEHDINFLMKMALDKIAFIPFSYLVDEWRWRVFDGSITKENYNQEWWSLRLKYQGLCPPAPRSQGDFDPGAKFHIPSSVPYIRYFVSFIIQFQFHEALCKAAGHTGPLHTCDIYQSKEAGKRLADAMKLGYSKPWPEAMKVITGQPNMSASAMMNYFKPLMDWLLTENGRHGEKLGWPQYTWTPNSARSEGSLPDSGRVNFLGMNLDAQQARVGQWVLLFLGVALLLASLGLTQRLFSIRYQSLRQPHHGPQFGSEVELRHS

| SMILES | IC50 [1] [nM] | ACE content (mouse ACE) [pg/mL] | other results |
| --- | --- | --- | --- |
| CC1(C)C2CCC1(C)C(OC(=O)[C@@H]1CCCN1C(=O)[C@@H]1CCCN1C(=O)[C@H](O)Cc1ccc(O)c(O)c1)C2 (stereo in doubt) [Compound 221S-6a] | 43 ± 6 | 76 ± 5 |  |
| C[C@H](NC(=O)[C@H](O)Cc1ccc(O)c(O)c1)C(=O)N1CCC[C@H]1C(=O)OC1CC2CCC1(C)C2(C)C (stereo partly drawn) [Compound 221S-1a] | 23 ± 9 | 64 ± 8 | dose dependence of effect on arterial systolic pressure ([2]; 7 days intragastric at different doses, 14 days (FIG. 5)): dose-dependent; antihypertensive effect (arterial systolic pressure) compared with captopril ([2]; intragastric once a day for 7 days, followed over 14 days (FIG. 4)): better antihypertensive effect than captopril; reduction of ACE content compared with captopril (in words) (mouse ACE; intragastric 0.05 mmol/kg, 7 days, summary of Table 8): most significant reduction effect; dose dependence of antihypertensive effect ([3]; single intragastric administration at different doses, within 6 hours (FIG. 3)): good dose-dependent relationship; antihypertensive effect (arterial systolic pressure) compared with captopril ([3]; single intragastric administration, within 6 hours (FIG. 2, 3)): antihypertensive effect was better than that of captopril |
| C[C@H](NC(=O)[C@@H](O)Cc1ccc(O)c(O)c1)C(=O)N1CCC[C@H]1C(=O)OC1CC2CCC1(C)C2(C)C (stereo partly drawn) [Compound 221S-1b] | 33 ± 6 | 78 ± 12 |  |
| CC(C)[C@H](NC(=O)[C@H](O)Cc1ccc(O)c(O)c1)C(=O)N1CCC[C@H]1C(=O)OC1CC2CCC1(C)C2(C)C (stereo partly drawn) [Compound 221S-2a] | 37 ± 5 | 87 ± 8 |  |
| CC(C)C[C@H](NC(=O)[C@H](O)Cc1ccc(O)c(O)c1)C(=O)N1CCC[C@H]1C(=O)OC1CC2CCC1(C)C2(C)C (stereo partly drawn) [Compound 221S-3a] | 27 ± 7 | 79 ± 7 |  |
| CCC(C)[C@H](NC(=O)[C@H](O)Cc1ccc(O)c(O)c1)C(=O)N1CCC[C@H]1C(=O)OC1CC2CCC1(C)C2(C)C (stereo partly drawn) [Compound 221S-4a] | 34 ± 7 | 82 ± 10 |  |
| CC(C)(C)[C@H](NC(=O)[C@H](O)Cc1ccc(O)c(O)c1)C(=O)N1CCC[C@H]1C(=O)OC1CC2CCC1(C)C2(C)C (stereo partly drawn) [Compound 221S-5a] | 28 ± 9 | 89 ± 11 |  |
| CSCC[C@H](NC(=O)[C@H](O)Cc1ccc(O)c(O)c1)C(=O)N1CCC[C@H]1C(=O)OC1CC2CCC1(C)C2(C)C (stereo partly drawn) [Compound 221S-7a] | 78 ± 5 | 71 ± 9 |  |
| CC1(C)C2CCC1(C)C(OC(=O)[C@@H]1CCCN1C(=O)[C@H](Cc1ccccc1)NC(=O)[C@H](O)Cc1ccc(O)c(O)c1)C2 (stereo partly drawn) [Compound 221S-8a] | 65 ± 5 | 80 ± 7 |  |
| CC1(C)C2CCC1(C)C(OC(=O)[C@@H]1CCCN1C(=O)CNC(=O)[C@H](O)Cc1ccc(O)c(O)c1)C2 (stereo partly drawn) [Compound 221S-15a] | 33 ± 6 | 83 ± 11 |  |
| COc1cc(/C=C/C(=O)N[C@@H](C)C(=O)N2CCC[C@H]2C(=O)OC2CC3CCC2(C)C3(C)C)ccc1O (stereo partly drawn) [Compound 221S-27a] | 44 ± 3 | 82 ± 11 |  |
| C[C@H](NC(=O)/C=C/c1ccc(O)c(O)c1)C(=O)N1CCC[C@H]1C(=O)OC1CC2CCC1(C)C2(C)C (stereo partly drawn) [Compound 221S-28a] | 29 ± 7 | 79 ± 8 |  |
| C[C@H](NC(=O)Cc1ccc(O)c(O)c1)C(=O)N1CCC[C@H]1C(=O)OC1CC2CCC1(C)C2(C)C (stereo partly drawn) [Compound 221S-29a] | 38 ± 5 | 85 ± 8 |  |
| C[C@H](NC(=O)c1ccc(O)c(O)c1)C(=O)N1CCC[C@H]1C(=O)OC1CC2CCC1(C)C2(C)C (stereo partly drawn) [Compound 221S-30a] | 35 ± 6 | 75 ± 8 |  |
| C[C@H](NC(=O)c1cc(O)c(O)c(O)c1)C(=O)N1CCC[C@H]1C(=O)OC1CC2CCC1(C)C2(C)C (stereo partly drawn) [Compound 221S-31a] | 31 ± 8 | 71 ± 13 |  |
